How the values were obtained:
Rattus norvegicus [1] = test: Inhibition of d-amphetamine induced stereotypy in rats; i.p. treatment 24 hr before amphetamine.; assay type: functional
Rattus norvegicus [2] = test: Inhibition of d-amphetamine induced stereotypy in rats; i.p. treatment 5 hr before amphetamine.; assay type: functional
Rattus norvegicus [3] = test: Inhibition of d-amphetamine induced stereotypy in rats; i.p. treatment 1 hr before amphetamine.; assay type: functional
Rattus norvegicus [4] = species on record: Rattus norvegicus; test: animal or person; conditions: ip
Rattus norvegicus [5] = species on record: Rattus norvegicus; test: animal or person; conditions: ip; remark: listed apart in the source
Rattus norvegicus [6] = species on record: Rattus norvegicus; test: animal or person; conditions: ip; remark: listed apart in the source
[7] = Rattus norvegicus, ip, read-out: ED50

Row | Compound | ED50 (Rattus norvegicus [1]; [7]) | ED50 (Rattus norvegicus [2]; [7]) | ED50 (Rattus norvegicus [3]; [7]) | other results
1 | OC(CCCN1CC[C@@H]2[C@@H](C1)c1cc(F)ccc1N2c1ccc(F)cc1)c1ccc(F)cc1 (some centres not stated) | 0.03 mg/kg | 0.03 mg/kg | 0.41 mg/kg | 
2 | O=C(CCCN1CCC(O)(c2ccc(Cl)cc2)CC1)c1ccc(F)cc1 [HALOPERIDOL] |  |  |  | ED50 (Rattus norvegicus [4]): 0.1 mg/kg; ED50 (Rattus norvegicus [5]): > 3.2 mg/kg; ED50 (Rattus norvegicus [6]): 0.1 mg/kg
3 | OC(CCCN1CCc2c(c3cc(F)ccc3n2-c2ccc(F)cc2)C1)c1ccc(F)cc1 (configuration not stated) [FLUTROLINE] | 0.32 mg/kg | 0.1 mg/kg | 0.1 mg/kg | 
4 | CN1CC[C@@H]2[C@@H](C1)c1cc(F)ccc1N2c1ccc(F)cc1 | > 3.2 mg/kg | 0.23 mg/kg | 0.14 mg/kg | 
5 | c1ccc(CN2CC[C@H]3[C@@H](C2)c2ccccc2N3c2ccccc2)cc1 |  | > 32 mg/kg | > 32 mg/kg | 
6 | Fc1ccc(/C=C/CCN2CC[C@@H]3[C@@H](C2)c2cc(F)ccc2N3c2ccc(F)cc2)cc1 | 0.57 mg/kg | 0.57 mg/kg | > 1 mg/kg | 
7 | CN1CC[C@@H]2Nc3ccccc3[C@@H]2C1 [CARBIDINE] |  | > 32 mg/kg | > 32 mg/kg | 
8 | COc1ccc(C(O)CCCN2CC[C@@H]3[C@@H](C2)c2cc(F)ccc2N3c2ccc(F)cc2)cc1 (some centres not stated) | 0.1 mg/kg | 0.01 mg/kg | 0.36 mg/kg | 
9 | OC(CCCN1CC[C@@H]2[C@@H](C1)c1cc(F)ccc1N2c1ccc(F)cc1)c1ccccc1 (some centres not stated) | 0.18 mg/kg |  | 0.18 mg/kg | ED50 (Rattus norvegicus [2]; ip): 0.18 mg/kg
10 | OC(CCCN1CC[C@H]2[C@@H](C1)c1ccccc1N2c1ccccc1)c1ccc(F)cc1 (some centres not stated) |  | > 32 mg/kg | > 32 mg/kg | 
11 | OCCCCN1CC[C@@H]2[C@@H](C1)c1cc(F)ccc1N2c1ccc(F)cc1 | ~1 mg/kg | 0.009 mg/kg | 0.03 mg/kg | 
12 | OC(CCCN1CC[C@H]2[C@@H](C1)c1cc(F)ccc1N2c1ccc(F)cc1)c1ccc(F)cc1 (some centres not stated) | 9.1 mg/kg | 1.1 mg/kg | 22 mg/kg | 
13 | O=C(CCCN1CC[C@@H]2[C@@H](C1)c1cc(F)ccc1N2c1ccc(F)cc1)c1ccc(F)cc1 | 0.03 mg/kg | 0.1 mg/kg | > 1 mg/kg | 
14 | OC(CCCN1CC[C@@H]2[C@@H](C1)c1cc(F)ccc1N2c1ccccc1)c1ccc(F)cc1 (stereo in doubt; 25) |  |  |  | ED50 (Rattus norvegicus [1]): 0.032 mg/kg; ED50 (Rattus norvegicus [2]): ~0.032 mg/kg; ED50 (Rattus norvegicus [3]): 0.1 mg/kg
15 | OC(CCCN1CC[C@@H]2[C@@H](C1)c1cc(F)ccc1N2c1ccccc1)c1ccc(F)cc1 (stereo in doubt; 24) |  |  |  | ED50 (Rattus norvegicus [1]): 0.11 mg/kg; ED50 (Rattus norvegicus [2]): 0.08 mg/kg; ED50 (Rattus norvegicus [3]): 0.23 mg/kg
16 | Fc1ccc(N2c3ccc(F)cc3[C@@H]3CNCC[C@H]32)cc1 |  | > 3.2 mg/kg | > 3.2 mg/kg | 
17 | CN1CC[C@H]2[C@@H](C1)c1ccccc1N2c1ccccc1 |  | > 32 mg/kg | > 32 mg/kg | 
18 | c1ccc(N2c3ccccc3[C@@H]3CNCC[C@@H]32)cc1 |  | > 32 mg/kg | > 32 mg/kg | 
19 | COc1ccc(/C=C/CCN2CC[C@@H]3[C@@H](C2)c2cc(F)ccc2N3c2ccc(F)cc2)cc1 | ~0.32 mg/kg | ~0.32 mg/kg | > 3.2 mg/kg | 
20 | CCN1CC[C@@H]2[C@@H](C1)c1cc(F)ccc1N2c1ccc(F)cc1 | > 10 mg/kg | 0.18 mg/kg | 0.14 mg/kg | 
21 | OC(CCCN1CC[C@@H]2[C@@H](C1)c1ccccc1N2c1ccc(F)cc1)c1ccc(F)cc1 (some centres not stated) | 0.032 mg/kg | 0.032 mg/kg | ~0.32 mg/kg | 

Source: ChEMBL document CHEMBL1123474, “Neuroleptics from the 4a,9b-cis- and 4a,9b-trans-2,3,4,4a,5,9b-hexahydro-1H-pyrido[4,3-b]indole series. 2” (J Med Chem, 1986)
